Measured values: patent US20110178105A1, “CLINICAL BENEFITS OF EICOSAPENTAENOIC ACID IN HUMANS” (E.I. DU PONT DE NEMOURS AND COMPANY, priority 2010, published 2011)
Values joined by “and” are separate entries in the source; they are usually repeats but may differ in a detail not shown here. Equal values may be shown once. “Also recorded” adds a separate entry of the source.

Assays:
[1] = cited from earlier work; for effects on C-reactive protein, interleukin-6, or tumor necrosis alpha: 4 grams per day; for reduction of triglyceride levels: overweight, hyperlipidemic men
[2] = cited from earlier work; for better absorbed than EE forms: TG forms
[3] = Clinical study: post-prandial lipids 4 hours after fat-rich test meal; format: in vivo, human; settings: 6 weeks
Procedure: At visit 2, subjects were again asked to fast for 12 hours, and information about subject characteristics including all vital signs, recent illness or hospitalization, medication and supplement use, and diet information was again obtained. Subjects then had blood drawn for a metabolic profile and complete blood counts. […] Subjects (30 in each group) were then randomized equally for 6 weeks to one of four treatment arms: 1) olive oil placebo; 2) 600 mg of EPA/day; 3) 1800 mg of EPA/day; and, 4) 600 mg of DHA/day. At one week and three weeks after beginning the supplements, all study subjects were contacted by telephone and asked about any adverse effects and about their compliance, and the information on their calendars with regard to capsule use and fish intake. They were also asked about whether they had experienced any fishy aftertaste or odor, and if so, how frequent were these episodes, and how unpleasant were they? The entire process as listed above was repeated after study subjects were on the study capsules for 6 weeks at the time of the final visit. Compliance and adverse events were assessed by telephone at weeks 1 and 3 by telephone and at week 6 by questionnaire and capsule count. Over 42 days, subjects were expected to have consumed a total of 252 capsules. Compliance was calculated as a percentage of consumed capsule count/expected capsule count based on the number of days the subject was in the study. All subjects were asked to stay on their capsules until they come in for their final visit. Compliance in all participants who completed the study was based on capsule count was in excess of 85%, mean 96%.
(§1) On the samples obtained 4 hours after the fat-rich meal, total cholesterol, triglycerides, direct HDL cholesterol, and direct LDL cholesterol were measured. Direct LDL cholesterol and small dense LDL cholesterol levels were measured using kits obtained from Denka-Seiken Corporation, (Tokyo, Japan), as previously described (Okada, M. et al., supra; Hirano, T. et al., supra; Ai, M. et al., supra). Remnant lipoprotein cholesterol was measured using kits obtained from Polymedco (Cortland Manor, N.Y.) and manufactured by Otsuka Corporation (Tokyo, Japan) as previously described (McNamara, J. R. et al., Atherosclerosis, supra). All lipid assays are standardized through the Lipid Research Clinics standardization program of the Centers for Disease Control (Atlanta, Ga.). All assays had between and within run coefficients of variation of <5%. Serum fatty acid profiles were analyzed by Nutrasource Diagnostics (Guelph, Ontario, Canada).

[4] = Clinical study: serum fatty acid profiles (EPA, ARA/EPA, Total Omega-3 Score); format: in vivo, human; settings: 6 weeks; for Total Omega-3 Score: FIG. 4; for serum level of EPA / serum ratio of ARA/EPA (Inflammation Index): EPA 600 and 1800 mg/day, DHA 600 mg/day; for serum level of EPA: FIG. 1; for serum ratio of ARA/EPA (Inflammation Index): FIG. 3
Procedure: as §1

[5] = Clinical study: inflammation markers, adhesion molecules, adiponectin (hsCRP, IL-6, sICAM, VCAM); format: in vivo, human; settings: Fast, 6 weeks
Procedure: The following laboratory measurements were carried out on an automated analyzer (Roche Diagnostics, Indianapolis, Ind.) on samples obtained in the fasting state at the randomization visit, and the final visits using frozen aliquots of serum stored at −80 degrees Celsius: 1) total cholesterol; 2) triglycerides; 3) direct high density lipoprotein [“HDL”] cholesterol; 4) direct low density lipoprotein [“LDL”] cholesterol; 5) direct small dense LDL cholesterol; 6) apolipoprotein [“apo”] B; 7) apoA-I; 8) lipoprotein (a); 9) fibrinogen; 10) high sensitivity C reactive protein [“hs-CRP”]; 11) lipoprotein associated phospholipase A2 [“Lp-PLA2”]; and, 12) insulin as previously described. See, McNamara, J. R. and Schaefer, E. J., Clin. Chim. Acta, 166:1-8 (1987); Okada, M. et al., J. Lab. Clin. Med., 132:195-201 (1998); Hirano, T. et al., J. Lipid Res., 44:2193-2201 (2003); Ai, M. et al., Am. J. Cardiol., 101:315-318 (2008); Ingelsson, E. et al., JAMA, 298:776-785 (2007); Jenner, J. L. et al., Circulation, 87:1135-1141 (1993); Schaefer, E. J. et al., Am. J. Cardiol., 95:1025-1032 (2005); McNamara, J. R. et al., Atherosclerosis, 154:229-236 (2001).
Plasma apoB-48 was measured with an enzyme linked immunosorbent assay obtained from the Shibayagi Company (Gunma, Japan) (Kinoshita, M. et al., Clin. Chim. Acta, 351:115-120 (2005); Otokozawa, S. et al., Atherosclerosis, 205:197-201 (2009); Otokozawa, S. et al., Metabolism, 58(11): 1536-1542 (2009)). ICAM1 and VCAM1, interleukin-6 or IL-6, and adiponectin were all measured using commercially available enzyme linked immunoassays [“ELISA”] obtained from the R & D Corporation (Minneapolis, Minn.). All these assays have within and between run coefficients of variation of less than 10%.

For `CCC=CCC=CCC=CCC=CC/C=C\CCCC(=O)O` [EPA, cis-5,8, 11, 14, 17-eicosapentaenoic acid], the “effects on C-reactive protein, interleukin-6, or tumor necrosis alpha” value [1] is given as “no significant effects”, the “reduction of triglyceride levels” value ([1]; 4 grams/day) is given as 18% and the “better absorbed than EE forms” value [2] is given as 48%. The “EPA incorporation into plasma lipids” value ([2]; administered as an EE) was “considerably smaller”, the “HDL C, 6-Week Change (%)” value ([3]; EPA 600 mg (n = 27)) was “+4.8 ± 20.7%” and the “HDL C, Final” value ([3]; EPA 600 mg (n = 27)) was 53.1 ± 16.4 mg/dL. For the same compound, the “LDL C, 6-Week Change (%)” value ([3]; EPA 600 mg (n = 27)) was −1.4 ± 12.9%, the “LDL C, Final” value ([3]; EPA 600 mg (n = 27)) was 108.2 ± 32.2 mg/dL and the “Total Cholesterol, 6-Week Change (%)” value ([3]; EPA 600 mg (n = 27)) was −0.3 ± 8.6%. For the same compound, the “Total Cholesterol, Final” value ([3]; EPA 600 mg (n = 27)) was 193.3 ± 44.7 mg/dL, the “Triglyceride, 6-Week Change (%)” value ([3]; EPA 600 mg (n = 27)) was −3.1 ± 36.9% and the “Triglyceride, Final” value ([3]; EPA 600 mg (n = 27)) was 184.9 ± 98.5 mg/dL. The “HDL C, 6-Week Change (%)” value ([3]; EPA 1800 mg (n = 29)) was “+3.4 ± 11.5%”, the “HDL C, Final” value ([3]; EPA 1800 mg (n = 29)) was 55.3 ± 15.3 mg/dL and the “LDL C, 6-Week Change (%)” value ([3]; EPA 1800 mg (n = 29)) was −2.7 ± 13.6%. The “LDL C, Final” value ([3]; EPA 1800 mg (n = 29)) was 111.5 ± 25.2 mg/dL, the “Total Cholesterol, 6-Week Change (%)” value ([3]; EPA 1800 mg (n = 29)) was −1.4 ± 9.9% and the “Total Cholesterol, Final” value ([3]; EPA 1800 mg (n = 29)) was 197.3 ± 33.8 mg/dL. The “Triglyceride, 6-Week Change (%)” value ([3]; EPA 1800 mg (n = 29)) was −3.8 ± 40.2%, the “Triglyceride, Final” value ([3]; EPA 1800 mg (n = 29)) was 193.5 ± 184.2 mg/dL and the “metabolic conversion of EPA to DHA” value [4] was “no indication”. For the same compound, the “Total Omega-3 Score” value [4] was “increased”, the “serum level of EPA” value [4] was “significantly raised” and the “serum ratio of ARA/EPA (Inflammation Index)” value ([4]; listed as EPA substantially free of DHA) was “significantly decreased”. For the same compound, the “serum ratio of ARA/EPA (Inflammation Index)” value ([4]; listed as EPA-rich oil) was “dose-related decrease; also recorded: significantly decreased”, the “Adiponectin, 6-Week Change (%)” value ([5]; EPA 600 mg (n = 27)) was 11.3 ± 31.4% and the “Adiponectin, Final” value ([5]; EPA 600 mg (n = 27)) was 9501.4 ± 5894.3 ng/mL. The “IL-6, 6-Week Change (%)” value ([5]; EPA 600 mg (n = 27)) was “+35.3 ± 126.1%”, the “IL-6, Final” value ([5]; EPA 600 mg (n = 27)) was 2.0 ± 1.8 pg/mL and the “VCAM, 6-Week Change (%)” value ([5]; EPA 600 mg (n = 27)) was “+2.2 ± 12.6%”. The “VCAM, Final” value ([5]; EPA 600 mg (n = 27)) was 722.8 ± 178.0 ng/mL, the “hsCRP, 6-Week Change (%)” value ([5]; EPA 600 mg (n = 27)) was “+115.6 ± 508.4%” and the hsCRP, Final ([5]; EPA 600 mg (n = 27)) was 3.3 ± 4.9 mg/L. The “sICAM, 6-Week Change (%)” value ([5]; EPA 600 mg (n = 27)) was “+3.2 ± 19.0%”, the “sICAM, Final” value ([5]; EPA 600 mg (n = 27)) was 232.4 ± 62.7 ng/mL and the “Adiponectin, 6-Week Change (%)” value ([5]; EPA 1800 mg (n = 29)) was 16.4 ± 82.6%. For the same compound, the “Adiponectin, Final” value ([5]; EPA 1800 mg (n = 29)) was 17578.6 ± 45606.9 ng/mL, the “IL-6, 6-Week Change (%)” value ([5]; EPA 1800 mg (n = 29)) was “+3.1 ± 50.1%” and the “IL-6, Final” value ([5]; EPA 1800 mg (n = 29)) was 1.3 ± 0.7 pg/mL. The “VCAM, 6-Week Change (%)” value ([5]; EPA 1800 mg (n = 29)) was “+1.0 ± 13.5%”, the “VCAM, Final” value ([5]; EPA 1800 mg (n = 29)) was 607.5 ± 125.7 ng/mL and the “hsCRP, 6-Week Change (%)” value ([5]; EPA 1800 mg (n = 29)) was “+26.0 ± 113.0%”. For the same compound, the hsCRP, Final ([5]; EPA 1800 mg (n = 29)) was 2.7 ± 4.7 mg/L, the “sICAM, 6-Week Change (%)” value ([5]; EPA 1800 mg (n = 29)) was −2.6 ± 17.1% and the “sICAM, Final” value ([5]; EPA 1800 mg (n = 29)) was 206.9 ± 50.5 ng/mL.
In the case of `CCC=CCC=CCC=CCC=CCC=CC/C=C\CCC(=O)O` [DHA, cis-4,7, 10, 13, 16, 19-docosahexaenoic acid, reference compound], the “effects on C-reactive protein, interleukin-6, or tumor necrosis alpha” value [1] is listed as “no significant effects”, the HDL2 cholesterol ([1]; 4 grams/day) is listed as “significantly increased” and the “forearm blood flow in response to acetylcholine infusion relative to placebo” value ([1]; 4 grams/day) is listed as “significantly increased”. For the same compound, the “reduction of triglyceride levels” value ([1]; 4 grams/day) was 20%, the “better absorbed than EE forms” value [2] was 36% and the “HDL C, 6-Week Change (%)” value ([3]; DHA 600 mg (n = 28)) was “+1.2 ± 10.9%”. The “HDL C, Final” value ([3]; DHA 600 mg (n = 28)) was 57.5 ± 22.7 mg/dL, the “LDL C, Final” value ([3]; DHA 600 mg (n = 28)) was 121.9 ± 32.9 mg/dL and the “Total Cholesterol, 6-Week Change (%)” value ([3]; DHA 600 mg (n = 28)) was “+6.2 ± 10.8%”. For the same compound, the “Total Cholesterol, Final” value ([3]; DHA 600 mg (n = 28)) was 211.1 ± 38.6 mg/dL, the “Triglyceride, 6-Week Change (%)” value ([3]; DHA 600 mg (n = 28)) was −9.5% and −9.5 ± 24.4% and the “Triglyceride, Final” value ([3]; DHA 600 mg (n = 28)) was 169.8 ± 89.2 mg/dL. The “retroconversion of DHA to EPA” value [4] was “no indication”, the “Total Omega-3 Score” value [4] was “increased” and the “serum level of EPA” value [4] was “not”. The “serum ratio of ARA/EPA (Inflammation Index)” value ([4]; listed as DHA-rich oil) was “no such effect”, the “Adiponectin, 6-Week Change (%)” value ([5]; DHA 600 mg (n = 28)) was −6.7 ± 19.8% and the “Adiponectin, Final” value ([5]; DHA 600 mg (n = 28)) was 11380.0 ± 14772.6 ng/mL. The “IL-6, 6-Week Change (%)” value ([5]; DHA 600 mg (n = 28)) was “+5.7 ± 50.3%”, the “IL-6, Final” value ([5]; DHA 600 mg (n = 28)) was 1.6 ± 0.9 pg/mL and the “VCAM, 6-Week Change (%)” value ([5]; DHA 600 mg (n = 28)) was “+0.2 ± 11.0%”. For the same compound, the “VCAM, Final” value ([5]; DHA 600 mg (n = 28)) was 673.0 ± 197.4 ng/mL, the “hsCRP, 6-Week Change (%)” value ([5]; DHA 600 mg (n = 28)) was “+27.1 ± 82.3%” and the hsCRP, Final ([5]; DHA 600 mg (n = 28)) was 3.4 ± 4.5 mg/L. The “sICAM, 6-Week Change (%)” value ([5]; DHA 600 mg (n = 28)) was “+0.7 ± 18.0%” and the “sICAM, Final” value ([5]; DHA 600 mg (n = 28)) was 240.2 ± 114.1 ng/mL.
